Our source for the RP-LC retention time values is the METLIN SMRT retention time set (Domingo-Almenara et al. 2019).

The data set is described as follows: gradient 5% acetonitrile 3 min, to 50% in 2 min, to 85% in 15 min, held 3 min, 100 µL/min. Particulars: column: Zorbax Extend-C18 2.1 x 50 mm; eluents: water / acetonitrile, 0.1% formic acid. In a few lines:
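Each retention time is based on an adduct peak selected computationally and verified by manual inspection. Measurements used HPLC–quadrupole time-of-flight mass spectrometry in positive and negative ionization mode on mixtures of ~100 pure standards. Chromatography ran on a Zorbax Extend-C18 column (2.1 × 50 mm, 1.8 μm) at 100 μL/min with water and acetonitrile, each containing 0.1% formic acid, and dead and dwell volumes of 40 μL and 900 μL.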
Take `Cn1c(=O)n(C)c2cc(N3CCCCC3)c(NC(=O)NC3CCCC3)cc21`: the RP-LC retention time was 654 s. With `CCN1C(=O)C2(CCN(C(C)=O)CC2)c2ccccc21` the figure was 707 s; with `COc1cccc(CNC2=NCCNC23CCN(S(=O)(=O)c2ccc(F)cc2)CC3)c1`, 695 s; with `CCn1c(C)c(-c2nc(C3CC3)no2)c(S(=O)(=O)NC2CCCC2)c1C`, 1060 s. Turning to `COc1ccccc1N1CCN(C(=O)c2cn(-c3ccc(NC(=O)C4CC4)cn3)cn2)CC1`, the RP-LC retention time came to 699 s. Compound `O=C(Nc1ccccc1)Oc1ccc[nH]c1=O` came in with an RP-LC retention time of 650 s. With `Cc1cc(C(F)(F)F)nn1CC(=O)NCC1Cn2cccc2C(=O)N1CC(C)C` (centres undefined) the figure was 797 s; with `O=C(CCSc1nnnn1-c1ccc(Cl)cc1)Nc1nccs1`, 776 s. The same measure for `Cc1cc2[nH]c(C(=O)Nc3ccc(Cl)cc3F)c(CN3CCOCC3)c2s1`: 759 s; for `CC(C)(C)NC(=O)N1CC2CC1C(=O)O2` (centres undefined): 596 s. The same measure for `O=C(Nc1cccnc1N1CCOCC1)C1CCC1`: 623 s; for `CCOc1ccccc1NC(=O)N1CCCC1c1cc(C)no1` (centres undefined): 854 s; for `Cc1ccn2cc(-c3ccc(NC(=O)Nc4cccc(Cl)c4)cc3)nc2n1`: 692 s. Compound `COc1ccc(-c2noc(CN3N=NC4C(=O)N(c5ccc6c(c5)CCC6)C(=O)C43)n2)cc1OC` (centres undefined) returned an RP-LC retention time of 949 s.

Turning to `Cc1ccc2c(c1)C(c1ccccc1)NCC(=O)N2` (centres undefined), the RP-LC retention time came out at 544 s. The same measure for `COc1cccc(CNC(=O)C2(C)CCCN(C(=O)Nc3ccccc3C(F)(F)F)C2)c1` (centres undefined): 934 s; for `Nc1ccc(Nc2ccccc2)c(S(=O)(=O)O)c1`: 639 s; for `CCn1cc(S(=O)(=O)N2CCC(Cc3nc(-c4cccnc4)n[nH]3)C2)cn1` (centres undefined): 592 s. The same measure for `Cc1cc(C)c(C(=O)N2CCCC(C(=O)N3CCN(c4cccc(Cl)c4)CC3)C2)[nH]1` (centres undefined): 953 s; for `CC(C)NC(=O)CC1CCN(C(=O)c2cc3cc(Cl)ccc3[nH]2)CC1`: 773 s; for `COc1ccc(-c2noc3ncnc(N4CCC(C(=O)N5CCC(C(N)=O)CC5)CC4)c23)cc1`: 656 s.

Consider `CCOC(=O)c1cc(S(=O)(=O)N2CCCC2C(=O)N(CC)c2ccc(OC)cc2)cn1C` (centres undefined), for which the RP-LC retention time stood at 892 s.

On to `Cn1c(=O)c(SCC(=O)NC2CCN(Cc3ccccc3)CC2)nc2ccccc21`, for which the RP-LC retention time is 624 s. The same measure for `CCc1ccc(OCc2nc(CCN(C)C(=O)c3ccco3)no2)cc1`: 910 s. With `CCOc1ccc(S(=O)(=O)N2CCCN(c3ccc(=O)n(-c4ccc(F)cc4)n3)CC2)cc1` the figure was 885 s; with `CCOc1ccc(S(=O)(=O)NCc2ccc3c(c2)CCN3C(=O)c2ccccc2)cc1`, 953 s; with `Cc1ccc(Nc2nc(-c3ccc(C)c(C)c3)cs2)nc1`, 859 s. With `COc1cc(Cl)c(NC(=O)Cn2cc(-c3nnc(C)o3)c3ccccc32)c(OC)c1` the figure was 836 s; with `CC(Cc1ccccc1)NC(N)=O` (centres undefined), 698 s. In the case of `CCCCc1ccc(Nc2nc(C(=O)OCC)nc3ccccc23)cc1`, the RP-LC retention time is 1110 s. In turn, `CCSc1nnc(NC(=O)c2cc(=O)c(OCc3ccc(F)cc3)co2)s1` registered an RP-LC retention time of 791 s. `CCOc1ccc(-c2cn3ccn(-c4ccc(OC)cc4)c(=O)c3n2)cc1` gave an RP-LC retention time of 830 s. The same measure for `O=C(CCn1cnc2cc(-c3noc(-c4cccc5[nH]ccc45)n3)ccc21)N1CCCC1`: 701 s; for `COc1ccc(CNC(=O)c2ccc(N3CCCS3(=O)=O)cc2)cc1OC`: 652 s; for `CCOc1ccc(CC(=O)N2CCCC2c2nc(-c3ccccc3Cl)no2)cc1OCC` (centres undefined): 1050 s.

`Cc1cccc(S(=O)(=O)N2C[C@H]3CN(S(=O)(=O)c4ccc(C#N)cc4)C[C@@H](C2)O3)c1`: the RP-LC retention time amounted to 945 s. The same measure for `CC(C)C(=O)Nc1ccc(CCc2nc3ccc(C(=O)NCCC4=CCCCC4)cc3[nH]2)cc1`: 731 s. The same measure for `CCOC(=O)c1c(C)[nH]c(C(=O)N2CCC(CC(=O)NCc3ccc(N(C)C)cc3)CC2)c1C`: 620 s; for `CC(C)NC(=O)N(C1CC1)C1CCOC2(CCN(C(=O)c3ccco3)CC2)C1` (centres undefined): 707 s; for `COCCn1nc2n(c1=O)CCC1(CC2)CCN(C(=O)C2CCCO2)CC1` (centres undefined): 600 s. The same measure for `CCCn1c(=O)c2cc(C(=O)NCc3ccc(N4CCOCC4)cc3)nn2c2ccccc21`: 842 s; for `CCCn1c(=O)sc2cc(S(=O)(=O)N3CCC(C(=O)NCC4CCCO4)CC3)ccc21` (centres undefined): 763 s; for `CCOC(=O)Cc1ccc(NC(=O)NC2CCN(c3ccc(C)cc3)C2=O)cc1` (centres undefined): 784 s. For `Cc1cc(C(=O)N2CCC(N3CCCCC3)CC2)c2cc(Br)ccc2n1`, the RP-LC retention time was 586 s.

In the case of `O=C(Nc1ccccc1Br)N1CCc2nc(-c3ccc(Cl)cc3)ncc2C1`, the RP-LC retention time stood at 1130 s. The compound `c1ccc(CN2CCc3c(sc4ncnc(N5CCOCC5)c34)C2)cc1` gave an RP-LC retention time of 740 s. The same measure for `Cc1cc(C)c2c(N(C)C)nc(C(=O)Nc3ccc(N4CCOCC4)cc3)nc2n1`: 595 s; for `CCOC(=O)N1CCN(c2ccc(C(F)(F)F)cc2[N+](=O)[O-])CC1`: 967 s; for `CCCCNC(=O)CCc1c(C)n(CC)c2nc(-c3ccccc3)nn2c1=O`: 796 s. The same measure for `COc1ccc(C2CC(=O)c3cnc(Nc4nc(C)c5ccc(C)cc5n4)nc3C2)cc1` (centres undefined): 593 s. The same measure for `CCn1c(C2CCN(S(=O)(=O)c3cccc(C)c3)C2)nc2cccnc21` (centres undefined): 771 s; for `O=C(NCc1ccco1)C(=O)c1cccn1Cc1ccc(F)cc1`: 962 s; for `CCOC(=O)C1CCN(C(=O)c2ccc3c(c2)NC(=O)C2CCCCN32)CC1` (centres undefined): 554 s. `COC(=O)c1ccc2c(=O)n(-c3ccc(Cl)cc3)c(N3CCN(C4CCCCC4)CC3)nc2c1` yielded an RP-LC retention time of 754 s.

In turn, `CC1=C(c2ccc(Cl)cc2)S(=O)(=O)N=C1N1CCCN(C(=O)c2ccsc2)CC1` displayed an RP-LC retention time of 843 s. Compound `O=S(=O)(Nc1ccccc1F)c1ccc(-c2nnc(C3CCC3)o2)o1` returned an RP-LC retention time of 856 s. The same measure for `CC(=O)N1CCN(c2nc(-c3ccccc3)c3cc(Br)ccc3n2)CC1`: 1010 s; for `CCCn1ccc2oc(C)c(C(=O)NCc3cccc(Br)c3)c2c1=O`: 1130 s. The same measure for `Cc1cc(C(=O)Nc2ccc(-c3ccn[nH]3)cc2)c(C)o1`: 716 s; for `CCC(=O)Nc1ccc2c(c1)CN(C(=O)c1cccc(Cl)c1)C(C(=O)N1CCCC1)C2` (centres undefined): 1070 s; for `COc1ccc(-c2noc(-c3cc(N4CCN(C)CC4)nc4ccccc34)n2)cc1`: 794 s. The same measure for `Cc1sc(NC(=O)C(F)(F)F)nc1-c1ccc2c(c1)NC(=O)CO2`: 763 s. For `CCOc1ccccc1NC(=O)c1cnc2c(c1)c(=O)n(C)c(=O)n2-c1ccccc1`, the RP-LC retention time was 961 s. The same measure for `O=C(NCc1ccccc1)C1CCc2nc(N3CCCCC3)ncc2C1` (centres undefined): 720 s; for `CCNc1nc(C)cc(N2CCN(S(=O)(=O)c3cc(C(C)(C)C)ccc3OC)CC2)n1`: 803 s; for `Cc1ccc(Nc2c(-c3ccc(C)cc3)nc3c(C)cccn23)cc1`: 808 s. The same measure for `Cc1cccc(NC(=O)Cn2cnc3onc(C)c3c2=O)c1C`: 754 s; for `CC1=NS(=O)(=O)N(Cc2ccccc2)C=C1C(=O)OCc1noc(-c2cccc(Cl)c2)n1`: 1130 s.

As to `O=C(Cn1ncccc1=O)N1CCN(c2ccc(-c3ccco3)nn2)CC1`, the RP-LC retention time worked out at 552 s.

In turn, `COCCN1CCC2(CC1)CN(Cc1ccc(C(C)C)cc1)Cc1ccccc1O2` registered an RP-LC retention time of 667 s.

Compound `COc1ccc(-c2nn3c(CSc4ccccc4)nnc3s2)cc1OC` registered an RP-LC retention time of 882 s. For the compound `COc1ccc(S(=O)(=O)NCc2c(-c3ccccc3)nc3sc(C)nn23)cc1Cl`, the RP-LC retention time was 912 s. With `O=C(Cn1nc2nc(Nc3ccc(F)cc3)ccn2c1=O)NCC1CCCO1` (centres undefined), the RP-LC retention time was found to be 637 s.

In turn, `COC(=O)c1c(C)c(C(=O)C(C)N(Cc2ccc(F)cc2)C(=O)C2CCCC2)c(C)n1C` (centres undefined) registered an RP-LC retention time of 1090 s.

Regarding `O=C(Cn1cc(-c2nc(-c3ccc(Cl)cc3)no2)ccc1=O)N1CCCC1`, the RP-LC retention time stood at 959 s. With `CCCNC(=O)C1CCN(c2nc3ccsc3c(=O)n2Cc2ccc(F)cc2)CC1` the figure was 807 s.

`COc1ccc(Cl)cc1NC(=O)N1CCCC1c1nc(-c2ccccc2OC)no1` (centres undefined) came in with an RP-LC retention time of 1010 s. With `CCOC(=O)Nc1nc(CC(=O)NCCc2c[nH]c3ccccc23)cs1` the figure was 680 s; with `O=C(CCCc1nc2cccnc2n1Cc1ccc(F)cc1)N1CCN(c2ccccn2)CC1`, 606 s.
